Data set [1] can be described thus: Volume of distribution at steady state in rat at 3 mg/kg, po or 1 mg/kg, iv. The class given is ADME, organism-based. The settings on record: in vivo.
The nature of data set [2]: Metabolic stability in dog liver microsome assessed as half-life at 1 uM preincubated for 5 mins followed by NADPH addition and measured upto 60 mins by LC-MS/MS analysis. The settings on record: liver microsomes, time < 65 min. The class given is ADME, Canis lupus familiaris.
Data set [3] in a line: Metabolic stability in monkey liver microsome assessed as half-life at 1 uM preincubated for 5 mins followed by NADPH addition and measured upto 60 mins by LC-MS/MS analysis. The class given is ADME, Macaca mulatta. The settings on record: rhesus monkey, liver microsomes, time < 65 min. (In general: Liver microsomes are vesicles of endoplasmic reticulum, rich in cytochrome P450 enzymes.)

Data set [4] is described as follows: in vitro. To be noted: rat, liver microsomes.
The nature of data set [5]: Oral bioavailability in rat at 3 mg/kg. The settings on record: in vivo. The class given is ADME, organism-based.
A short description of data set [6]: in vitro. The settings on record: mouse, liver microsomes.
The nature of data set [7]: in vitro. To be noted: human, liver microsomes.
Data set [8] in a line: in vitro. To be noted: human, Caco-2.
The nature of data set [9]: in vitro. The settings on record: human, Caco-2. The source holds these as a separate data set.
Data set [10] is described as follows: Cmax in rat at 3 mg/kg, po or 1 mg/kg, iv. The class given is ADME, organism-based. The settings on record: in vivo.
A short description of data set [11]: Half-life in rat at 3 mg/kg, po or 1 mg/kg, iv. The class given is ADME, organism-based. The settings on record: in vivo.
The nature of data set [12]: AUC in rat at 3 mg/kg, po or 1 mg/kg, iv. The settings on record: in vivo. The class given is ADME, organism-based.

Where only a bound is given, the exact number is not on record here.

For orientation: half-life means the time in which the quantity being followed falls by half. One may read the bioavailability as dose-corrected exposure relative to a reference, in per cent. As for `CN1Cc2cc3c(cc2C1)C(=O)N(C1CCC(=O)NC1=O)C3=O` (centres undefined), the Vdss in data set [1] was found to be 5 L/kg. For the same molecule, the half-life at 1 µM in data set [2] is more than 1 h; in [3], 0.9 h. The half-life at 1 h, 1 µM in [4], in data set [6] and in [7] was more than 1 h throughout. Moreover, the bioavailability in data set [5] stood at 70%.
The Papp B→A is the apparent permeability from the basolateral to the apical side of a cell layer. One may read the Papp A→B as how fast a substance crosses the layer from the apical side. By Cmax is commonly meant the highest concentration seen after dosing. As a reminder, the AUC is concentration integrated over time. Molecule `CN1Cc2cc3c(cc2C1)C(=O)N(C1CCC(=O)NC1=O)C3` (centres undefined) had a Vdss in [1] of 2.9 L/kg. The half-life at 1 µM in data set [2] and in [3] was more than 1 h throughout. The same molecule had a Papp B→A at 2 h, 10 µM in [8] of 6.8 ×10⁻⁶ cm/s. For the same molecule, the half-life at 1 h, 1 µM in data set [4], in data set [6] and in [7] was more than 1 h each time. For the same molecule, the Papp A→B at 2 h, 10 µM in data set [9] was 2.55 ×10⁻⁶ cm/s. In data set [10], this molecule yielded a Cmax of 276 ng/mL. The bioavailability in [5] was 60%. Also, in data set [11], the half-life is 2.2 h. In data set [12], this molecule came in with an exposure (AUC) of 1500 ng·h/mL.

Source of the values: ChEMBL document CHEMBL5576143, “Discovery of CW-3308 as a Potent, Selective, and Orally Efficacious PROTAC Degrader of BRD9” (J Med Chem, 2024).
